Earlier results on 1 molecule are cited in patent US10493069B2, “Methods of treating behavioral syndromes using pipradrol” (Ovid Therapeutics Inc., priority 2016, dated 2019).

The test system of the series is individuals with depression. To be noted: study on 111 individuals with depression; Rickels et al., J Clin Pharmacol 14, 127-133 (1974).

For the molecule `OC(c1ccccc1)(c1ccccc1)C1CCCCN1` (stereo not shown) [pipradrol], the “efficacy compared with placebo in depression” value is reported as “not superior to placebo”.
